According to PubChem BioAssay AID1919017 (Molecular Pharmacology Branch, DTP, NCI, 2023):

Tested on: SW1271 complex spheroids with HUVEC/MSC, growth, % test/control
Assay: Anticancer human tumor SW1271 cell line growth inhibition [AhR];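 note: spheroids exposed to agents for 7 days before readout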
Conditions: for IC50: curve of first compound; for viability, T/C: stronger effect = lower value
Excerpt: Multicellular complex tumor spheroid response to aryl hydrocarbon receptor antagonists in combination with a variety of drugs and investigational agents in selected tumor cell lines
The current study was undertaken to assess response to aryl hydrocarbon receptor antagonists in combination with standard-of-care drugs and investigational agents in solid tumor complex spheroid models. Complex spheroids include a stromal component modeled by human endothelial cells (HUVEC) and fibroblasts modeled by human mesenchymal stem cells (MSCs). The concentration ranges selected for each drug and investigational agent were based upon clinically achievable concentrations if the clinical Cmax of the agent was known.
Compounds. The drugs and investigational agents: BAY 2416964 (NSC825713), GNF351 (NSC835774), CH-223191 (NSC835775), CPI-455 (NSC825282), aza-TdCyd (NSC777586), decitabine (NSC127716), belinostat (NSC758774), entinostat (NSC756642), pevonedistat (NSC761192), tazemetostat (NSC777109), talazoparib (NSC765396), olaparib (NSC753686), selinexor (NSC780203), nedisertib (M3814, NSC802822), bortezomib (NSC756655), venetoclax (NSC766270), doxorubicin (NSC123127), elimusertib (BAY189344, NSC800525), ceralasertib (AZD6738, NSC777638), TAK-243 (NSC785004), alisertib (NSC759677), etoposide (NSC141540), topotecan (NSC609699), eribulin (NSC707389), gemcitabine (NSC613327), carboplatin (NSC241240), cisplatin (NSC119875), and SN-38 (NSC673596) were obtained from the National Cancer Institute (NCI) Developmental Therapeutics Program Chemical Repository (32). The FDA-approved anticancer drug set is available from the Developmental Therapeutics Program at https://dtp.cancer.gov/organization/dscb/obtaining/available plates.htm. […] The stock solutions were prepared in dimethyl sulfoxide (DMSO, Sigma-Aldrich, St. Louis, MO, cat. D2650), except for the platinum compounds which were prepared in saline (Quality Biological, Gaithersburg, MD, cat. 114-055-101), at 800-fold the tested concentration and stored at -70 degrees C prior to their use. All drugs and investigational agents were tested over a range starting from a high concentration at or near the clinical Cmax and decreasing in half-log increments. If the clinical Cmax for an agent had not been determined, the highest concentration tested was 10 microM (Table 1).
Cell Culture. All cells were maintained in an incubator at 37 degrees C and 5% CO2 with 95% humidity. The PDC lines were cultured according to standard operating procedures established by the NCI PDMR (https://pdmr.cancer.gov). Briefly, all PDCs were thawed and cultured in Matrigel-coated flasks prepared with a working solution of 1X Ham's F-12 nutrient mix, without supplementation (Invitrogen, Waltham, MA, cat. 11765054), 100 U/mL penicillin-streptomycin (Invitrogen, cat. 15140122), and 2.5% Matrigel (Corning Inc., Corning, NY, cat. 354248) for the first three passages. All PDCs were cultured in complete DMEM/F-12 media containing advanced DMEM/F-12 (Invitrogen, cat. 12634028), 4.9% defined fetal bovine serum, heat inactivated (HyClone Laboratories Inc., Logan, UT, cat. SH30070.03HI), 389 ng/mL hydrocortisone (Sigma-Aldrich, cat. H4001), 9.7 ng/mL human EGF recombinant protein (Invitrogen, cat. PHG0313), 23.4 microg/mL adenine (Sigma-Aldrich, cat. A2786), 97.3 U/mL penicillin-streptomycin (Invitrogen, cat. 15140122), 1.9 mM L-glutamine (Invitrogen, cat. 25030081), and 9.7 microM Y-27632 dihydrochloride (Tocris Bioscience, Bristol, United Kingdom, cat. 1254). The PDCs were cultured in complete DMEM/F12 media without 10 microM Y-27632 dihydrochloride for at least two passages prior to the screen. The established cell lines NCI-H1341 and […] were cultured in DMEM/F-12, HEPES (Invitrogen, cat. 11330032), 5% defined fetal bovine serum (HyClone Laboratories Inc., cat. SH30070.03), ITS premix universal culture supplement [insulin (5 microg/mL), transferrin (5 microg/mL), and selenious acid (5 ng/mL)] […]

[1] = second compound 0.1 µM, first compound 0.00316 µM
[2] = second compound 0.1 µM, first compound 0.01 µM
[3] = second compound 0.1 µM, first compound 0.0316 µM
[4] = second compound 0.1 µM, first compound 0.1 µM
[5] = second compound 0.316 µM, first compound 0.00316 µM
[6] = second compound 0.316 µM, first compound 0.01 µM
[7] = second compound 0.316 µM, first compound 0.0316 µM
[8] = second compound 0.316 µM, first compound 0.1 µM
[9] = second compound 1 µM, first compound 0.00316 µM
[10] = second compound 1 µM, first compound 0.01 µM
[11] = second compound 1 µM, first compound 0.0316 µM
[12] = second compound 1 µM, first compound 0.1 µM
[13] = second compound 3.16 µM, first compound 0.00316 µM
[14] = second compound 3.16 µM, first compound 0.01 µM
[15] = second compound 3.16 µM, first compound 0.0316 µM
[16] = second compound 3.16 µM, first compound 0.1 µM
[17] = second compound 10 µM, first compound 0.00316 µM
[18] = second compound 10 µM, first compound 0.01 µM
[19] = second compound 10 µM, first compound 0.0316 µM
[20] = second compound 10 µM, first compound 0.1 µM
[21] = second compound 0.1 µM, first compound 0.316 µM
[22] = second compound 0.1 µM, first compound 1 µM
[23] = second compound 0.1 µM, first compound 3.16 µM
[24] = second compound 0.1 µM, first compound 10 µM
[25] = second compound 0.316 µM, first compound 0.316 µM
[26] = second compound 0.316 µM, first compound 1 µM
[27] = second compound 0.316 µM, first compound 3.16 µM
[28] = second compound 0.316 µM, first compound 10 µM
[29] = second compound 1 µM, first compound 0.316 µM
[30] = second compound 1 µM, first compound 1 µM
[31] = second compound 1 µM, first compound 3.16 µM
[32] = second compound 1 µM, first compound 10 µM
[33] = second compound 3.16 µM, first compound 0.316 µM
[34] = second compound 3.16 µM, first compound 1 µM
[35] = second compound 3.16 µM, first compound 3.16 µM
[36] = second compound 3.16 µM, first compound 10 µM
[37] = second compound 10 µM, first compound 0.316 µM
[38] = second compound 10 µM, first compound 1 µM
[39] = second compound 10 µM, first compound 3.16 µM
[40] = second compound 10 µM, first compound 10 µM

CC[C@@]1(O)C(=O)OCc2c1cc1n(c2=O)Cc2cc3c(CN(C)C)c(O)ccc3nc2-1 + CC(CO)NC(=O)c1cc(-c2ccc(Cl)cc2)nn(-c2cnn(C)c2)c1=O
IC50 (second compound 0.1 µM): > 100 nM | IC50 (second compound 0.316 µM): > 100 nM | IC50 (second compound 1 µM): > 100 nM | IC50 (second compound 3.16 µM): > 100 nM | IC50 (second compound 10 µM): > 100 nM | viability, T/C (second compound 0.1 µM, first compound 0.000316 µM): 93.6% | viability, T/C (second compound 0.1 µM, first compound 0.001 µM): 91.3% | viability, T/C [1]: 75.2% | viability, T/C [2]: 81.6% | viability, T/C [3]: 65.8% | viability, T/C [4]: 58% | viability, T/C (second compound 0.316 µM, first compound 0.000316 µM): 92.9% | viability, T/C (second compound 0.316 µM, first compound 0.001 µM): 70.6% | viability, T/C [5]: 91.1% | viability, T/C [6]: 87.4% | viability, T/C [7]: 68.2% | viability, T/C [8]: 50.2% | viability, T/C (second compound 1 µM, first compound 0.000316 µM): 81% | viability, T/C (second compound 1 µM, first compound 0.001 µM): 73.6% | viability, T/C [9]: 84.4% | viability, T/C [10]: 87% | viability, T/C [11]: 57.2% | viability, T/C [12]: 62.8% | viability, T/C (second compound 3.16 µM, first compound 0.000316 µM): 77.9% | viability, T/C (second compound 3.16 µM, first compound 0.001 µM): 85.2% | viability, T/C [13]: 69.8% | viability, T/C [14]: 61.6% | viability, T/C [15]: 61.8% | viability, T/C [16]: 53.5% | viability, T/C (second compound 10 µM, first compound 0.000316 µM): 75.8% | viability, T/C (second compound 10 µM, first compound 0.001 µM): 73.8% | viability, T/C [17]: 63.5% | viability, T/C [18]: 69.3% | viability, T/C [19]: 60.2% | viability, T/C [20]: 51.9%

COc1cc(C2c3cc4c(cc3C(OC3OC5COC(C)OC5C(O)C3O)C3COC(=O)C23)OCO4)cc(OC)c1O (stereo not given) + CC(CO)NC(=O)c1cc(-c2ccc(Cl)cc2)nn(-c2cnn(C)c2)c1=O
IC50 (second compound 0.1 µM): 9250 nM | IC50 (second compound 0.316 µM): 5010 nM | IC50 (second compound 1 µM): 8480 nM | IC50 (second compound 3.16 µM): 3030 nM | IC50 (second compound 10 µM): 2910 nM | viability, T/C [3]: 78.3% | viability, T/C [4]: 74.3% | viability, T/C [21]: 66.5% | viability, T/C [22]: 72.7% | viability, T/C [23]: 57.1% | viability, T/C [24]: 49.5% | viability, T/C [7]: 93.5% | viability, T/C [8]: 77.6% | viability, T/C [25]: 60.4% | viability, T/C [26]: 57.9% | viability, T/C [27]: 56% | viability, T/C [28]: 44.5% | viability, T/C [11]: 64.7% | viability, T/C [12]: 78.5% | viability, T/C [29]: 59.4% | viability, T/C [30]: 60.1% | viability, T/C [31]: 61.6% | viability, T/C [32]: 47.7% | viability, T/C [15]: 70.9% | viability, T/C [16]: 68% | viability, T/C [33]: 59.6% | viability, T/C [34]: 45.2% | viability, T/C [35]: 59.2% | viability, T/C [36]: 43.6% | viability, T/C [19]: 71.1% | viability, T/C [20]: 65% | viability, T/C [37]: 50.7% | viability, T/C [38]: 63.7% | viability, T/C [39]: 43.4% | viability, T/C [40]: 48.3%

COc1cccc2c1C(=O)c1c(O)c3c(c(O)c1C2=O)CC(O)(C(=O)CO)CC3OC1CC(N)C(O)C(C)O1 (stereo not given) + CC(CO)NC(=O)c1cc(-c2ccc(Cl)cc2)nn(-c2cnn(C)c2)c1=O
IC50 (second compound 0.1 µM): 348 nM | IC50 (second compound 0.316 µM): 136 nM | IC50 (second compound 1 µM): 151 nM | IC50 (second compound 3.16 µM): 337 nM | IC50 (second compound 10 µM): 165 nM | viability, T/C [3]: 62.5% | viability, T/C [4]: 67.7% | viability, T/C [21]: 54% | viability, T/C [22]: 5.59% | viability, T/C [23]: 1.72% | viability, T/C [24]: 3.58% | viability, T/C [7]: 49.2% | viability, T/C [8]: 61.1% | viability, T/C [25]: 35.6% | viability, T/C [26]: 4% | viability, T/C [27]: 1.69% | viability, T/C [28]: 2.61% | viability, T/C [11]: 72% | viability, T/C [12]: 52.9% | viability, T/C [29]: 39.2% | viability, T/C [30]: 3.81% | viability, T/C [31]: 1.11% | viability, T/C [32]: 2.5% | viability, T/C [15]: 68.6% | viability, T/C [16]: 54% | viability, T/C [33]: 52.8% | viability, T/C [34]: 1.66% | viability, T/C [35]: 2.16% | viability, T/C [36]: 2.9% | viability, T/C [19]: 58.7% | viability, T/C [20]: 61.3% | viability, T/C [37]: 37% | viability, T/C [38]: 0.78% | viability, T/C [39]: 1.79% | viability, T/C [40]: 3.41%

Nc1ncn(C2CC(O)C(CO)O2)c(=O)n1 (stereo not given) + CC(CO)NC(=O)c1cc(-c2ccc(Cl)cc2)nn(-c2cnn(C)c2)c1=O
IC50 (second compound 0.1 µM): > 1000 nM | IC50 (second compound 0.316 µM): > 1000 nM | IC50 (second compound 1 µM): > 1000 nM | IC50 (second compound 3.16 µM): > 1000 nM | IC50 (second compound 10 µM): > 1000 nM | viability, T/C [1]: 73.8% | viability, T/C [2]: 85.4% | viability, T/C [3]: 80% | viability, T/C [4]: 75.9% | viability, T/C [21]: 93% | viability, T/C [22]: 66.8% | viability, T/C [5]: 78.2% | viability, T/C [6]: 88% | viability, T/C [7]: 77.5% | viability, T/C [8]: 79.7% | viability, T/C [25]: 62.1% | viability, T/C [26]: 105% | viability, T/C [9]: 76% | viability, T/C [10]: 79.7% | viability, T/C [11]: 81.6% | viability, T/C [12]: 75.1% | viability, T/C [29]: 75.8% | viability, T/C [30]: 76.1% | viability, T/C [13]: 60% | viability, T/C [14]: 81% | viability, T/C [15]: 79.3% | viability, T/C [16]: 67.1% | viability, T/C [33]: 68.8% | viability, T/C [34]: 78% | viability, T/C [17]: 65.9% | viability, T/C [18]: 66.5% | viability, T/C [19]: 67.5% | viability, T/C [20]: 67.2% | viability, T/C [37]: 59.1% | viability, T/C [38]: 54.6%
